Source: patent US10392404B2, “Compounds and compositions as kinase inhibitors” (NOVARTIS AG, priority 2014, dated 2019)

Experiments:
b-Raf (V600E) = biological target: T1, b-Raf (V600E) (Homo sapiens, UniProt P15056, V600E); assay: In vitro Raf activity determination (Alpha Screen, biotinylated kinase-dead MEK1 substrate), B-Raf; format: biochemical; details: b-Raf (V600E) approximately 4 pM; ATP 10 μM; pre-incubation 60 minutes; reaction 3 hours at room temperature
T1 construct: made in house
Procedure: (§1) Full length MEK1 with an inactivating K97R ATP binding site mutation is utilized as a RAF substrate. The MEK1 cDNA was subcloned with an N-terminal (his)6 tag into a vector for E. Coli expression. The MEK1 substrate was purified from E. Coli lysate by nickel affinity chromatography followed by anion exchange. The final MEK1 preparation was biotinylated (Pierce EZ-Link Sulfo-NHS-LC-Biotin) and concentrated.
(§2) Assay Materials: Assay buffer is 50 mM Tris, pH 7.5, 15 mM MgCl2, 0.01% Bovine Serum Albumin (BSA) and 1 mM dithiothreitol (DTT); Stop buffer is 60 mM ethylenediaminetetraacetic acid (EDTA) and 0.01% Tween® 20; b-Raf (V600E), active; biotinylated Mek, kinase dead; Alpha Screen detection kit (available from PerkinElmer™, #6760617R); Anti phospho-MEK1/2 (available from Cell Signaling Technology, Inc. #9121); 384 well low volume assay plates (White Greiner® plates).
(§3) Assay conditions: b-Raf (V600E) approximately 4 pM; c-Raf approximately 4 nM; biotinylated Mek, kinase dead approximately 10 nM; ATP 10 μM for BRAF (V600E) and 1 μM for CRAF; Pre-incubation time with compounds 60 minutes at room temperature; Reaction time 1 or 3 hours at room temperature.
(§4) Assay protocol: Raf and biotinylated Mek (kinase dead) were combined at 2× final concentrations in assay buffer (50 mM Tris, pH 7.5, 15 mM MgCl2, 0.01% BSA and 1 mM DTT) and dispensed […] per well in assay plates (Greiner white 384 well assay plates #781207) containing […] of 40× of a Raf kinase inhibitor test compound diluted in 100% DMSO. The plate was incubated for 60 minutes at room temperature. The Raf kinase activity reaction was started by the addition of […] per well of 2×ATP diluted in assay buffer. After 3 hours (b-Raf(V600E)) or 1 hour (c-Raf). The reactions were stopped and the phosphorylated product was measured using a rabbit anti-p-MEK (Cell Signaling, #9121) antibody and the Alpha Screen IgG (ProteinA) detection Kit (PerkinElmer #6760617R), by the addition of […] to the well of a mixture of the antibody (1:2000 dilution) and detection beads (1:2000 dilution of both beads) in Stop/bead buffer (25 mM EDTA, 50 mM Tris, pH 7.5, 0.01% Tween20). The additions were carried out under dark conditions to protect the detection beads from light. A lid was placed on top of the plate and incubated for 1 hour at room temperature, after which the luminescence was read on a PerkinElmer Envision instrument. The concentration of each compound for 50% inhibition (IC50) was calculated by non-linear regression using XL Fit data analysis software.

C-RAF = biological target: T2, C-RAF (Homo sapiens, UniProt P04049, Y340E/Y341E); assay: In vitro Raf activity determination (Alpha Screen, biotinylated kinase-dead MEK1 substrate), C-Raf; format: biochemical; details: c-Raf approximately 4 nM; ATP 1 μM; pre-incubation 60 minutes; reaction 1 hour at room temperature
T2 construct: His tag (implied by nickel chromatography) (cleaved yes); StrepII tag (cleaved yes); made in house; host or cells: Sf9 insect cells (baculovirus), CRAF and h14-3-3 zeta co-expressed; MEK1 substrate from E. coli
From the text: CRAF cDNA was subcloned as full length protein, with Y340E and Y341E activating mutations, into a baculovirus expression vector for Sf9 insect cell expression. h14-3-3 zeta cDNA was subcloned into a baculovirus expression vector for SF9 insect cell expression. Sf9 cells co-expressing both proteins were lysed and subjected to immobilized nickel chromatography and eluted with Imidazole. A second column (StrepII binding column) was used and eluted with desthiobiotin. Protein Tags were removed using Prescission enzyme and the protein was further purified using a flowthrough step to remove tags.
C-Raf TR refers to a truncated C-Raf protein, a Δ1-324 deletion mutant. C-Raf FL refers to the full-length C-Raf protein.
as §1, §2, §3, §4

T1 sequence (P15056 whole entry V600E): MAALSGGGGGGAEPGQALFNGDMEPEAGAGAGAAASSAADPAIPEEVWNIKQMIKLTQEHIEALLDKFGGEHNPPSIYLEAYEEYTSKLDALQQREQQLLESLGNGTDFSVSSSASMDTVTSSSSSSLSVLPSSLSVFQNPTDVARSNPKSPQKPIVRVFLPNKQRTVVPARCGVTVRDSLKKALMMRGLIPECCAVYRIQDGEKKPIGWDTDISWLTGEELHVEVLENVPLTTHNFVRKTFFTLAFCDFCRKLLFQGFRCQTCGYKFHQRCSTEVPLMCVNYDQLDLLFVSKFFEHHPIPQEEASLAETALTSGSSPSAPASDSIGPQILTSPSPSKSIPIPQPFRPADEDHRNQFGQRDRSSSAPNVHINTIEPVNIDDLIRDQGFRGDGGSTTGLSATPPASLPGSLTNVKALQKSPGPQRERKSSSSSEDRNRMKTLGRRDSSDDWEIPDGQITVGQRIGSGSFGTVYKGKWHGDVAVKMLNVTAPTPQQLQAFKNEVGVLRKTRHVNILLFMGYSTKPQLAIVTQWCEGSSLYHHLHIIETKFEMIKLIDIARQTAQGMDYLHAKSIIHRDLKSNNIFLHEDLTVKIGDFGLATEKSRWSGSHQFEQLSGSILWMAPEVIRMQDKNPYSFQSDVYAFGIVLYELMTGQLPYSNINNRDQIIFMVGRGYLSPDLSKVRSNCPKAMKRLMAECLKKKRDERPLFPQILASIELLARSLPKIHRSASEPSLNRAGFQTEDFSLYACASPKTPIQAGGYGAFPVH
T2 sequence (P04049 whole entry Y340E/Y341E): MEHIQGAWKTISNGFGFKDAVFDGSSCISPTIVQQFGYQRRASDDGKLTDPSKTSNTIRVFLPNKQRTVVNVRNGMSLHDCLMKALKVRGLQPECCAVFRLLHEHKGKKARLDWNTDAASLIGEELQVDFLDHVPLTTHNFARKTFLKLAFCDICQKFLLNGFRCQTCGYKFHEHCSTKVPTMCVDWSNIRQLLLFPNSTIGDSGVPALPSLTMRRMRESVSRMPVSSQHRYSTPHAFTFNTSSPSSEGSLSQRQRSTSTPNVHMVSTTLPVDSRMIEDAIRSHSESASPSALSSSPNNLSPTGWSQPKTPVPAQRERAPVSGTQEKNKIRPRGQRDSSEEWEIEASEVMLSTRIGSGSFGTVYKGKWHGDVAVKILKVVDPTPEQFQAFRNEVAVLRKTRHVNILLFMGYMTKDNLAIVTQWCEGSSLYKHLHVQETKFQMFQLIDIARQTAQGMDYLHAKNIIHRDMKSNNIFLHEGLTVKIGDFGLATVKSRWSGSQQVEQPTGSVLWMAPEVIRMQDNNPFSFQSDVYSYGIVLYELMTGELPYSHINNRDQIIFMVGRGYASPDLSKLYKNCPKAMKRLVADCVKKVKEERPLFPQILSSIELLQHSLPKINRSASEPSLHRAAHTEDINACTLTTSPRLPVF
T2 sequence (P63104 whole entry partner): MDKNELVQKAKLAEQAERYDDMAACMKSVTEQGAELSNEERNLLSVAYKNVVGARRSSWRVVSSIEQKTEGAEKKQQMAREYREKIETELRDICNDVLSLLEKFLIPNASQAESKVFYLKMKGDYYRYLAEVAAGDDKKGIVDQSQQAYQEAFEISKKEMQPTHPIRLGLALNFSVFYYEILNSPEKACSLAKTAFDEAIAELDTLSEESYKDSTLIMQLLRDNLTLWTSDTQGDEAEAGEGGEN

| IC50 (b-Raf (V600E)) [nM] | IC50 (C-RAF) [nM] | SMILES |
| --- | --- | --- |
| 3.04 | 0.447 | COCCNc1ncc(-c2cc(NC(=O)c3cnnc(C(C)(C)C#N)c3)ccc2C)cc1C#N [Example 201, N-(3-(5-cyano-6-((2-methoxyethyl)amino)pyridin-3-yl)-4-methylphenyl)-6-(2-cyanopropan-2-yl)pyridazine-4-carboxamide] |
| 3.9 | 0.616 | Cc1ccc(NC(=O)c2cccc(C(F)(F)F)c2)cc1-c1cncc(C#N)c1 [Example 34, N-(3-(5-cyanopyridin-3-yl)-4-methylphenyl)-3-(trifluoromethyl) benzamide] |
| 0.477 | 0.158 | Cc1ccc(NC(=O)c2ccnc(C(F)(F)F)c2)cc1-c1cnc(N2CCOCC2)c(C#N)c1 [Example 62, N-(3-(5-cyano-6-morpholinopyridin-3-yl)-4-methylphenyl)-2-(trifluoromethyl) isonicotinamide] |
| 1.25 | 0.314 | Cc1ccc(NC(=O)c2ccnc(C(F)(F)F)c2)cc1-c1cnc(NC(C)C)c(C#N)c1 [Example 22, N-(3-(5-cyano-6-(isopropylamino)pyridin-3-yl)-4-methylphenyl)-2-(trifluoromethyl) isonicotinamide] |
| 6.15 | 0.636 | Cc1ncc(NC(=O)c2cc(C(C)C)on2)cc1-c1cnc(N(C)C)c(C#N)c1 [Example 269, N-(5′-cyano-6′-(dimethylamino)-2 methyl-[3,3′-bipyridin]-5-yl)-5-isopropylisoxazole-3-carboxamide] |
| 0.304 | 0.0423 | Cc1ccc(NC(=O)c2ccnc(C(F)F)c2)cc1-c1cnc(-c2cnn(C)c2)c(C#N)c1 [Example 126, N-(3-(5-cyano-6-(1-methyl-1H-pyrazol-4-yl)pyridin-3-yl)-4-methylphenyl)-2-(difluoromethyl) isonicotinamide] |
| 12.8 | 2.34 | Cc1ncc(NC(=O)c2ccnc(C(F)(F)F)c2)cc1-c1cnc(OC2COC2)c(C#N)c1 [Example 95, N-(5′-cyano-2-methyl-6′-(oxetan-3-yloxy)-[3,3′-bipyridin]-5-yl)-2-(trifluoromethyl) isonicotinamide] |
| 6.84 | 1.75 | COCCOc1ncc(-c2cc(NC(=O)c3ccnc(C(F)(F)F)c3)cnc2C)cc1C#N [Example 93, N-(5′-cyano-6′-(2-methoxyethoxy)-2-methyl-[3,3′-bipyridin]-5-yl)-2-(trifluoromethyl) isonicotinamide] |
| 1.46 | 0.236 | Cc1ncc(NC(=O)c2ccnc(C3CC3)c2)cc1-c1cnc(N2CCOCC2)c(C#N)c1 [Example 134, N-(5′-cyano-2-methyl-6′-morpholino-[3,3′-bipyridin]-5-yl)-2-cyclopropyl-isonicotinamide] |
| 5 | 1.37 | COCCNc1ncc(-c2cc(NC(=O)c3cc(C(F)(F)F)ccn3)cnc2C)cc1C#N [Example 229, N-(5′-cyano-6′-((2-methoxyethyl)amino)-2-methyl-[3,3′-bipyridin]-5-yl)-4-(trifluoromethyl) picolinamide] |
| 1.46 | 0.397 | Cc1ncc(NC(=O)c2ccnc(C(F)(F)F)c2)cc1-c1cnc(-c2cn(C)nc2C)c(C#N)c1 [Example 111, N-(5′-cyano-6′-(1,3-dimethyl-1H-pyrazol-4-yl)-2-methyl-[3,3′-bipyridin]-5-yl)-2-(trifluoromethyl) isonicotinamide] |
| 32.6 | 4.82 | COCCNc1ncc(-c2cc(NC(=O)c3cnnc(C(C)(C)C#N)c3)cnc2C)cc1C#N [Example 202, N-(5′-cyano-6′-((2-methoxyethyl)amino)-2-methyl-[3,3′-bipyridin]-5-yl)-6-(2-cyanopropan-2-yl)pyridazine-4-carboxamide] |
| 3.18 | 0.539 | Cc1ncc(NC(=O)c2cc(C(C)(C)F)ccn2)cc1-c1cnc(N2CCOCC2)c(C#N)c1 [Example 242, N-(5′-cyano-2-methyl-6′-morpholino-[3,3′-bipyridin]-5-yl)-4-(2-fluoropropan-2-yl)picolinamide] |
| 36 | 5.97 | COCCNc1ncc(-c2cc(NC(=O)c3ccnc(C(C)(C)O)c3)cnc2C)cc1C#N [Example 210, N-(5′-cyano-6′-((2-methoxyethyl)amino)-2-methyl-[3,3′-bipyridin]-5-yl)-2-(2-hydroxypropan-2-yl)isonicotinamide] |
| 0.591 | 0.158 | Cc1ccc(NC(=O)c2ccnc(C(C)C)c2)cc1-c1cnc(N2CCNCC2)c(C#N)c1 [Example 150, N-(3-(5-cyano-6-(piperazin-1-yl)pyridin-3-yl)-4-methylphenyl)-2-isopropyl-isonicotinamide] |
| 5.41 | 0.49 | Cc1ncc(NC(=O)c2cccc(S(C)(=O)=O)c2)cc1-c1cnc(N(C)C)c(C#N)c1 [Example 270, N-(5′-cyano-6′-(dimethylamino)-2-methyl-[3,3′-bipyridin]-5-yl)-3-(methylsulfonyl) benzamade] |
| 0.297 | 0.115 | Cc1ccc(NC(=O)c2cccc(S(C)(=O)=O)c2)cc1-c1cnc(N(C)C)c(C#N)c1 [Example 260, N-(3-(5-cyano-6-(dimethylamino)pyridin-3-yl)-4-methylphenyl)-3-(methylsulfonyl) benzamide] |
| 5.79 | 0.824 | Cc1ncc(NC(=O)c2ccnc(C(C)(F)F)c2)cc1-c1cnc(N2CC(C)(O)C2)c(C#N)c1 [Example 183, N-(5′-cyano-6′-(3-hydroxy-3-methylazetidin-1-yl)-2-methyl-[3,3′-bipyridin]-5-yl)-2-(1,1-difluoroethyl) isonicotinamide] |
| 2.54 | 0.653 | Cc1ccc(NC(=O)c2cc(C(C)(C)N)cc(C(F)(F)F)c2)cc1-c1cnc(N2CCOCC2)c(C#N)c1 [Example 249, 3-(2-aminopropan-2-yl)-N-(3-(5-cyano-6-morpholinopyridin-3-yl)-4-methylphenyl)-5-(trifluoromethyl) benzamide] |
| 0.575 | 0.103 | Cc1ccc(NC(=O)c2ccnc(C(F)(F)F)c2)cc1-c1cnc(NC2CC2)c(C#N)c1 [Example 21, N-(3-(5-cyano-6-(cyclopropylamino)pyridin-3-yl)-4-methylphenyl)-2-(trifluoromethyl) isonicotinamide] |
| 23.8 | 2.55 | Cc1ncc(NC(=O)c2ccnc(C(F)F)c2)cc1-c1cnc(C2CCOCC2)c(C#N)c1 [Example 129, N-(5′-cyano-2-methyl-6′-(tetrahydro-2H-pyran-4-yl)-[3,3′-bipyridin]-5-yl)-2-(difluoromethyl) isonicotinamide] |
| 4.44 | 0.566 | CNc1ncc(-c2cc(C(=O)Nc3cccc(C(F)(F)F)c3)ccc2C)cc1C#N [Example 7, 3-(5-cyano-6-(methylamino)pyridin-3-yl)-4-methyl-N-(3-(trifluoromethyl)phenyl) benzamide] |
| 1.52 | 0.353 | Cc1ccc(NC(=O)c2ccnc(C(C)(C)O)c2)cc1-c1cnc(N(C)C)c(C#N)c1 [Example 256, N-(3-(5-cyano-6-(dimethylamino)pyrdin-3-yl)-4-methylphenyl)-2-(2-hydroxypropan-2-yl)isonicotinamide] |
|  | 312 | Cc1cc(C(=O)Nc2cnc(C)c(-c3cnc(N(C)C)c(C#N)c3)c2)n(C)n1 [Example 265, N-(5′-cyano-6′-(dimethylamino)-2-methyl-[3,3′-bipyridin]-5-yl)-1,3-dimethyl-1H-pyrazole-5-carboxamide] |
